The results in this text go back to ChEMBL document CHEMBL1157784, “Antitumor activity and COMPARE analysis of bis-indole derivatives” (Bioorg Med Chem, 2010).

Molecules are shown by their SMILES. Structures can show the parent of a compound that is named as a salt. Activity calls are given as the source filed them. The calls are words filed in the database; no cut-off is given here.

In data set [1] the target is NAD(P)H dehydrogenase [quinone] 1 (Homo sapiens) (UniProt P15559). The data set can be described thus: Induction of NQO1 activity in HUVEC at 5 uM after 24 to 48 hrs by fluorescence plate reader.
NAD(P)H dehydrogenase [quinone] 1 (Homo sapiens), sequence (P15559 whole entry): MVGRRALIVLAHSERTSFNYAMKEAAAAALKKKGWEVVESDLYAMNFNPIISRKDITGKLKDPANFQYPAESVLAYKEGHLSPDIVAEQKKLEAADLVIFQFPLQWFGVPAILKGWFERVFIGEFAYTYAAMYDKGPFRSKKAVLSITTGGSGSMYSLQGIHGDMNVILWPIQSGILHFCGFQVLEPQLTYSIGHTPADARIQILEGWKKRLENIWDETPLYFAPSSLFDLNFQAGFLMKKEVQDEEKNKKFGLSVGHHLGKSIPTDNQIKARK
The nature of data set [2]: Growth inhibition of human CNS cancer cell by NCI-CLS assay. The class given is functional. The following applies: Cancer cell lines; for CC50: read-out: LC50 (the source's name).
Data set [3] is described as follows: Growth inhibition of human breast cancer cell by NCI-CLS assay. The class given is functional. The following applies: Cancer cell lines; for CC50: read-out: LC50 (the source's name).
The subject of another data set is HEL. Briefly: Antiproliferative activity against human HEL cells after 2 days by MTT assay. The format is functional, cell-based. The following applies: 48 h.
A short description of data set [4]: Antiproliferative activity against human B1647 cells after 2 days by MTT assay. The class given is functional, cell-based. The following applies: B1647, 48 h. A general note: Tetrazolium assays rely on reduction of a dye to a coloured formazan, in cell work by metabolically active cells.
The nature of data set [5]: Growth inhibition of human ovarian cancer cell by NCI-CLS assay. The following applies: Cancer cell lines; for CC50: read-out: LC50 (the source's name). The class given is functional.
Data set [6] is described as follows: Growth inhibition of human renal cancer cell by NCI-CLS assay. The format is functional. The following applies: Cancer cell lines; for CC50: read-out: LC50 (the source's name).
A short description of data set [7]: Growth inhibition of human colon cancer cell by NCI-CLS assay. The following applies: Cancer cell lines. The format is functional.
The next data set relates to NSCLC. Briefly: Growth inhibition of human NSCLC cell by NCI-CLS assay. The class given is functional.
A short description of data set [8]: Antiproliferative activity against human M07e cells after 2 days by MTT assay. The class given is functional, cell-based. The following applies: M-07e, 48 h.
Data set [9] is described as follows: Growth inhibition of human melanoma cell by NCI-CLS assay. The class given is functional. The following applies: for CC50: read-out: LC50 (the source's name).
Data set [10] is described as follows: Growth inhibition of human prostate cancer cell by NCI-CLS assay. The class given is functional. The following applies: Cancer cell lines; for CC50: read-out: LC50 (the source's name).
A further data set deals with HUVEC. The data set can be described thus: Cytotoxicity against HUVEC after 2 days by MTT assay. The following applies: Homo sapiens, 48 h. The format is cell-based.
Data set [11] in a line: Growth inhibition of human leukemia cell by NCI-CLS assay. The class given is functional.
Data set [12] in a line: Acute toxicity in athymic nude Swiss mouse administered as single dose. The format is organism-based. The following applies: in vivo.

Regarding `C[S+]([O-])CCCCN=C=S` (configuration not stated), the result in data set [1] was Active.

A word on the GI50: it is the concentration at which growth is held to half of that of the control. By TGI is commonly meant the concentration giving total growth inhibition. A higher TGI goes with lower sensitivity of the cells. For orientation: IC50 means the point on the concentration scale where inhibition reaches its midpoint. High values mean lower potency, low ones higher potency. Usually LC50 stands for the concentration that kills 50% of the test population. Low readings indicate greater toxicity, high ones lower toxicity. As for `O=C1Nc2cc(OC(F)(F)F)ccc2/C1=C\c1cccc(/C=C2/C(=O)Nc3cc(OC(F)(F)F)ccc32)n1`, the GI50 worked out at 0.3 µM in data set [2]; 0.3 µM in [3]; 0.4 µM in data set [5]; 0.3 µM in data set [6]; 0.2 µM in [7]; 0.4 µM in the data set with NSCLC. Also, the GI50 was found to be 0.4 µM in [9], 0.1 µM in data set [10] and 0.2 µM in [11]. Also, the TGI was 0.8 µM in data set [2]; 2 µM in data set [3]; 2.5 µM in data set [5]; 0.7 µM in data set [6]; 0.5 µM in data set [7]; 1.9 µM in the data set on NSCLC. Further, the total growth inhibition concentration (TGI) was determined as 1.1 µM in data set [9], 0.3 µM in data set [10] and 8.9 µM in data set [11]. Also, the CC50 in data set [2] was determined as 2.6 µM; in [3], 15.8 µM; in data set [5] it was 12.3 µM; in data set [6], 2.9 µM; in data set [9], 5.7 µM; in [10] it was 3.2 µM. Moreover, the outcome in [1] was Active. Besides, the IC50 in the data set with HEL was 3 µM; in data set [4], 3 µM; in data set [8] it was 3 µM; with HUVEC, less than 5 µM. Further, the LC50 in data set [7] came out at 2 µM; in the data set on NSCLC, 15.5 µM.

For `O=Cc1cccc(/C=C2/C(=O)Nc3c2ccc2ccccc32)n1`, the GI50 in [2] came to 11.2 µM; in data set [3] it was 6.2 µM; in data set [5] it was 8.7 µM; in [6], 10.7 µM; in data set [7], 9.5 µM; in the data set on NSCLC it was 14.4 µM. Also, the GI50 in data set [9] was determined as 11.5 µM; in data set [10], 5.7 µM; in data set [11], 2.5 µM. Further, the TGI in [2] was determined as 33.9 µM; in data set [3], 45.7 µM; in [5], 30.9 µM; in data set [6], 26.9 µM; in [7], 44.7 µM; in the data set on NSCLC, 37.1 µM. Also, the figures for the TGI in data set [9], in data set [10] and in data set [11] were 35.5 µM, 33.1 µM and 7.6 µM, respectively. Further, the CC50 in data set [2] worked out at 91.2 µM; in data set [3], 79.4 µM; in data set [5], 72.4 µM; in data set [6], 74.1 µM; in data set [9] it was 72.4 µM; in [10], 97.7 µM. Besides, the LC50 turned out to be 83.2 µM in [7] and 85.1 µM in the data set with NSCLC.

Turning to `COc1cc2c(c(OC)c1OC)/C(=C\c1cccc(/C=C3/C(=O)Nc4cc(OC)c(OC)c(OC)c43)n1)C(=O)N2`, the GI50 in [2] came to 0.3 µM; in [3], 0.2 µM; in [5] it was 0.3 µM; in data set [6], 0.3 µM; in [7] it was 0.2 µM; with NSCLC, 0.3 µM. Besides, the GI50 turned out to be 0.2 µM in [9], 0.3 µM in data set [10] and 0.2 µM in data set [11]. For the same compound, the TGI in data set [2] was determined as 0.8 µM; in data set [3] it was 1.5 µM; in data set [5], 0.8 µM; in data set [6], 0.7 µM; in data set [7], 0.5 µM; in the data set with NSCLC, 1.5 µM. Further, the concentration for total growth inhibition (TGI) in data set [9] is 0.5 µM; in data set [10], 1 µM; in data set [11], 2.8 µM. Further, the CC50 in data set [2] is 3.2 µM; in [3], 24.6 µM; in data set [5] it was 5.7 µM; in [6], 4.5 µM; in [9], 2.7 µM; in [10] it was 16.6 µM. Further, the outcome in data set [1] was Active. Moreover, the IC50 is 1 µM in the data set on HEL, 1 µM in [4], 1 µM in data set [8] and less than 5 µM in the data set with HUVEC. In addition, the LC50 in data set [7] was 7.2 µM; in the data set on NSCLC, 33.1 µM; in data set [11], 67.6 µM. In data set [12], this compound registered an MTD of 100 mg/kg.

For `CC[C@]1(O)C[C@H]2CN(CCc3c([nH]c4ccccc34)[C@@](C(=O)OC)(c3cc4c(cc3OC)N(C=O)[C@H]3[C@@](O)(C(=O)OC)[C@H](OC(C)=O)[C@]5(CC)C=CCN6CC[C@]43[C@@H]65)C2)C1` [VINCRISTINE SULFATE], the GI50 in data set [2] came out at 0.1 µM; in data set [3], 0.3 µM; in data set [5] it was 0.3 µM; in data set [6] it was 0.3 µM; in data set [7] it was 0.1 µM; with NSCLC, 0.2 µM. Also, the concentration for 50% growth inhibition (GI50) was 0.2 µM in [9], 0.1 µM in data set [10] and 0.1 µM in data set [11]. The TGI in data set [2] was 6.3 µM; in data set [3], 7.9 µM; in data set [5], 19.9 µM; in data set [6], 19.9 µM; in data set [7] it was 4 µM; in the data set on NSCLC, 15.8 µM. Also, the TGI was 7.9 µM in data set [9], 6.3 µM in data set [10] and 15.8 µM in data set [11].

Regarding `O=C1Nc2c(ccc3ccccc23)/C1=C\c1cccc(/C=C2/C(=O)Nc3c2ccc2ccccc32)n1`, the concentration for 50% growth inhibition (GI50) in data set [2] amounted to 15.8 µM; in data set [3], 17.8 µM; in [5], 19 µM; in data set [6] it was 17 µM; in data set [7], 14.4 µM; with NSCLC, 24 µM. For the same compound, the GI50 came out at 13.8 µM in data set [9], 21.9 µM in [10] and 1.5 µM in [11]. The TGI in data set [2] was determined as 49 µM; in data set [3] it was 69.2 µM; in data set [5] it was 56.2 µM; in [6] it was 41.7 µM; in data set [7] it was 44.7 µM; in the data set on NSCLC, 57.5 µM. In addition, the TGI was determined as 38 µM in data set [9], 81.3 µM in [10] and 10 µM in [11]. In addition, the CC50 was found to be 85.1 µM in data set [2]; 97.7 µM in data set [3]; 91.2 µM in data set [5]; 79.4 µM in data set [6]; 77.6 µM in data set [9]. Further, the LC50 came out at 83.2 µM in data set [7], 89.1 µM with NSCLC and 77.6 µM in data set [11].

For the compound `COc1ccc2c(c1)/C(=C\c1cc(OC)c(O)c(-c3cc(/C=C4/C(=O)Nc5ccc(OC)cc54)cc(OC)c3O)c1)C(=O)N2`, the 50% growth inhibitory concentration (GI50) in data set [2] came to 6.8 µM; in [3], 13.8 µM; in [5], 15.1 µM; in data set [6], 20.9 µM; in data set [7], 10.5 µM; with NSCLC, 21.9 µM. Also, the GI50 in [9] is 10.7 µM; in data set [10], 10.5 µM; in [11], 6.9 µM. Moreover, the TGI in data set [2] was 87.1 µM; in data set [6], 95.5 µM; in data set [7], 75.9 µM; in the data set on NSCLC, 95.5 µM; in data set [9], 93.3 µM; in data set [11], 89.1 µM.

With `COc1ccc(OC)c2c1NC(=O)/C2=C/c1cccc(/C=C2/C(=O)Nc3c(OC)ccc(OC)c32)n1`, the GI50 in data set [2] was found to be 0.7 µM; in [3] it was 0.7 µM; in [5], 0.8 µM; in data set [6] it was 0.7 µM; in [7] it was 0.5 µM; in the data set on NSCLC it was 0.9 µM. For the same compound, the GI50 came to 0.7 µM in data set [9], 0.5 µM in [10] and 0.4 µM in data set [11]. Also, the TGI was determined as 3.6 µM in data set [2]; 17.4 µM in data set [3]; 11.2 µM in [5]; 2.5 µM in data set [6]; 1.9 µM in data set [7]; 18.6 µM in the data set on NSCLC. The figures for the TGI in [9], in [10] and in data set [11] were 2.2 µM, 3.4 µM and 8.7 µM, respectively. Also, the CC50 in [2] was 21.9 µM; in [3] it was 60.3 µM; in data set [5], 27.5 µM; in [6], 18.2 µM; in data set [9] it was 13.5 µM; in data set [10], 25.1 µM. Also, the figures for the LC50 (in data set [7]; with NSCLC; in data set [11]) were 22.4 µM, 85.1 µM and 64.6 µM, respectively.
